Test results reported in ChEMBL document CHEMBL1800037, “Anti-proliferative activity of aguerin B and a new rare nor-guaianolide lactone isolated from the aerial parts of Centaurea deflexa” (Eur J Med Chem, 2011).
Calls of active or inactive are those of the source. The rule behind the calls is not given here.

Experiments:
[1] = system: MIA PaCa-2; test: Antiproliferative activity against human MIAPaCa2 cells; format: functional, cell-based; settings: TDE = time-dependent effect
[2] = Antiproliferative activity against human COLO320 cells after 48 hrs; format: functional, cell-based; settings: COLO 320, 48 h
[3] = Antiproliferative activity against human COLO320 cells after 72 hrs; format: functional, cell-based; settings: COLO 320, 72 h
[4] = system: MIA PaCa-2; test: Antiproliferative activity against human MIAPaCa2 cells after 48 hrs; format: functional, cell-based; settings: MIA PaCa-2, 48 h
[5] = system: MIA PaCa-2; test: Antiproliferative activity against human MIAPaCa2 cells after 48 to 72 hrs; format: functional, cell-based
[6] = system: COLO 320; test: Antiproliferative activity against human COLO320 cells after 48 to 72 hrs; format: functional, cell-based
[7] = system: COLO 320; test: Induction of apoptosis in human COLO320 cells assessed as increase of interneucleosomal DNA fragmentation at 10 uM after 24 hrs; format: functional, cell-based
[8] = system: COLO 320; test: Antiproliferative activity against human COLO320 cells; format: functional, cell-based; settings: TDE = time-dependent effect
[9] = system: MIA PaCa-2; test: Antiproliferative activity against human MIAPaCa2 cells after 72 hrs; format: functional, cell-based; settings: MIA PaCa-2, 72 h
[10] = system: HEK293; test: Antiproliferative activity against human HEK293 cells up to 100 uM; format: cell-based
[11] = system: MIA PaCa-2; test: Induction of apoptosis in human MIAPaCa2 cells assessed as increase of interneucleosomal DNA fragmentation at 10 uM after 24 hrs; format: functional, cell-based
[12] = system: COLO 320; test: Induction of apoptosis in human COLO320 cells assessed as increase of interneucleosomal DNA fragmentation at 5 uM after 24 hrs relative to control; format: functional
[13] = system: MIA PaCa-2; test: Induction of apoptosis in human MIAPaCa2 cells assessed as increase of interneucleosomal DNA fragmentation at 5 uM after 24 hrs relative to control; format: functional

Structure (SMILES) | Activity [1] | IC50 [2] [µM] | IC50 [3] [µM] | IC50 [4] [µM] | Activity [5] | Activity [6] | Activity [7] | Activity [8] | IC50 [9] [µM] | Activity [10] | Activity [11] | fold change (FC) [12] | fold change (FC) [13]
C=C1C[C@H](O)[C@@H]2[C@H](OC(=O)[C@H]2C)[C@H]2CC(=O)C[C@@H]12 | tde | 10 | 6 | 25.7 | Dose-dependent effect | Dose-dependent effect | inactive | tde | 15.9 | Non-toxic | inactive |  | 
C=C(C)C(=O)O[C@H]1CC(=C)[C@@H]2C[C@H](O)C(=C)[C@@H]2[C@H]2OC(=O)C(=C)[C@@H]21 [AGUERIN B] | tde | 3.2 | 2.6 | 7.5 | Dose-dependent effect | Dose-dependent effect |  | tde | 3.6 | Non-toxic |  | >2 | >2
O=c1[nH]cc(F)c(=O)[nH]1 [FLUOROURACIL] |  | 10 | 8.7 | 14 |  |  |  |  | 7.4 |  |  |  | 
